In ChEMBL document CHEMBL1128669, “The furoxan system as a useful tool for balancing "hybrids" with mixed alpha 1-antagonist and NO-like vasodilator activities” (J Med Chem, 1995) one finds pA2 and IC50 data, which are given here for six molecules.

Test [1] has as its target T1, Alpha-1D adrenergic receptor (Rattus norvegicus, UniProt P23944).
T1 sequence (P23944 whole entry): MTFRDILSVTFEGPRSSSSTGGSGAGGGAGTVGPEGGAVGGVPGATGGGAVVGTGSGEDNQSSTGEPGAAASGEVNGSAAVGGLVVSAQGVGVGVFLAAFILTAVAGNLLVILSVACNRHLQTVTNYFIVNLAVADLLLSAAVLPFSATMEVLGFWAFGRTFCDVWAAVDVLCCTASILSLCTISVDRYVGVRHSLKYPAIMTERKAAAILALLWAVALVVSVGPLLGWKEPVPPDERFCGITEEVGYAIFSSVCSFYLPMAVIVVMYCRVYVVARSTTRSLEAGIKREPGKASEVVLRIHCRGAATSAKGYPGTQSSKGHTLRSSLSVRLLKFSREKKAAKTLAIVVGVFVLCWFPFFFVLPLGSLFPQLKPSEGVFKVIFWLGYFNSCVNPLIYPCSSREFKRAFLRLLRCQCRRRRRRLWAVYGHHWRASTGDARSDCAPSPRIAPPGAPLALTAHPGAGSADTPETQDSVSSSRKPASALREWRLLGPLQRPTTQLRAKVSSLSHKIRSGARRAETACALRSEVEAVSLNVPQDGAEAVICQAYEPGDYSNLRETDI
Nature of the test: Partial affinity towards Alpha-1 adrenergic receptor was assessed on rat aortic strips.

For test [2], the species on record is Rattus norvegicus. Put plainly: Inhibition of vasodilating activity was assessed on the rat aortic strips in the absence of HbO2 in vitro.
Test [3] is filed under the species Rattus norvegicus. Put plainly: Inhibition of vasodilating activity was assessed on the epididymal portion of rat vas deferens in the absence of HbO2 in vitro. It is filed as functional, organism-based.
For test [4], the species on record is Rattus norvegicus. Nature of the test: Inhibition of vasodilating activity was assessed on the epididymal portion of rat vas deferens in the presence of HbO2 in vitro. Format: functional.
Test [5] is filed under the species Rattus norvegicus. Put plainly: Inhibition of vasodilating activity was assessed on the rat aortic strips in the presence of HbO2 in vitro.

Take `COc1cc2nc(N3CCN(C(=O)c4no[n+]([O-])c4C(N)=O)CC3)nc(N)c2cc1OC`: the pA2 in test [1] was found to be 8.25. The molecule further yielded an IC50 in the test listed under Rattus norvegicus [2] of 2500 nM.
The corresponding values for `COC(=O)c1c(C(=O)N2CCN(c3nc(N)c4cc(OC)c(OC)cc4n3)CC2)no[n+]1[O-]` are 8.55 and 630 nM.
In test [1], `COc1cc2nc(N3CCC(S(=O)(=O)c4nonc4-c4ccccc4)CC3)nc(N)c2cc1OC` registered a pA2 of 9.17.
For the molecule `COc1cc2nc(N3CCC(S(=O)(=O)c4no[n+]([O-])c4-c4ccccc4)CC3)nc(N)c2cc1OC`, the pA2 in test [1] is on record as 8.96. Also, the IC50 in the test filed under Rattus norvegicus [3] turned out to be 52 nM; in the test listed under Rattus norvegicus [4], 610 nM.
On the same counts, the results for `COc1cc2nc(N3CCC(S(=O)(=O)c4c(-c5ccccc5)no[n+]4[O-])CC3)nc(N)c2cc1OC` are 8.49, 95 nM and 700 nM.
As for `COc1cc2nc(N3CCN(C(=O)c4no[n+]([O-])c4C#N)CC3)nc(N)c2cc1OC`, the pA2 in test [1] came to 8.04. Moreover, the IC50 in the test listed under Rattus norvegicus [5] is 81 nM; in the test listed under Rattus norvegicus [2] it was 9.7 nM.

Broadly, the pA2 is a measure of antagonist potency on a negative log scale. Low readings indicate lower antagonist potency, high ones higher antagonist potency. One may read the IC50 as the midpoint of a concentration-inhibition curve.
